Reference: US9119396B2, “Method for promoting plant growth” (SUMITOMO CHEMICAL COMPANY, LIMITED, priority 2011, dated 2015)

Key:
Assay type in all cases: in vivo
[1] = test system: Rice (cultivar: Nipponbare); test: Test Example 1: promotion of root growth in hydroponics of rice; details: 1 ppm, 3 days germination + 3 days cultivation, average of 4 or 5 individuals
Procedure: Evaluation Test for Promotion of Root Growth in Hydroponics of Rice Rice (cultivar: Nipponbare) A 1/10,000 volume of each DMSO solution containing each of the present compounds 1 to 4 at 10,000 ppm was added to a Hoagland solution for hydroponics (Hoagland and Amon, California Agricultural Experiment Station 1950 Circular 347 pp. 34) at ¼ concentration to obtain a solution for hydroponics containing each of the present compounds 1 to 4 at 1 ppm. These solutions were used in the treated-group. In a non-treated group, a solution for hydroponics obtained by adding a Hoagland solution for hydroponics at ¼ concentration to a 1/10,000 volume of DMSO was used. The rice seeds were immersed in an aqueous solution of 1% sodium hypochlorite for 10 minutes, followed by 70% ethanol solution to sterilize their surfaces. After that, the seeds were washed with distilled water. The sterilized seeds were immersed in each solution for hydroponics containing the test compound at 1 ppm, and incubated at a temperature of 28° C. for 3 days under dark conditions to stimulate the germination of the seeds. Then, 30 ml of each solution for hydroponics containing the test compound at 1 ppm was dispensed into a plastic tube (20 mm in diameter×113 mm in height) covered with a cardboard on the lateral surface for blocking a light. A float made of a styrene board and a vinyl mesh was placed on the water surface of each solution for hydroponics, and the rice seeds obtained after the stimulation of germination were placed on the float. The seeds were cultivated for 3 days under the conditions of an illuminance of 4,000 lux at the top of the tube, a temperature of 26° C., a humidity of 50%, and a day length of 16 hours. The root length of the rice seedlings obtained after the cultivation was measured by using WinRHIZO system (manufactured by REGENT INSTRUMENTS). The average value of the root length in the treated group was calculated from the measurement values of 4 or 5 individuals. As a result, the root length in the treated group, wherein the plants were treated with the present compound 1, 2, 3 or 4 (at a concentration of 1 ppm in each case), was much longer than that in the non-treated group.

[2] = test system: Benthamiana tobacco (Nicotiana benthamiana); test: Test Example 9: reduction of low-temperature stress in hydroponics of tobacco; details: tobacco seedlings, medium with 0.1 ppm compound for 7 days; low-temperature stress 1.5±1.0° C. 7 days, then 3 days at 22° C.
Procedure: Evaluation Test for Reduction of Low-Temperature Stress in Hydroponics of Tobacco (Nicotiana benthamiana) Benthamiana tobacco (Nicotiana benthamiana) DMSO solutions containing each of the present compounds 1, 4 and 5 at a concentration of 100 ppm were prepared. […] These media were used in the treated-group. In a non-treated group, a medium obtained by adding a 1/1,000 volume of DMSO to a Murashige-and-Skoog medium at ½ concentration was used. The seeds of tobacco (Nicotiana benthamiana) were sown on 5 μL of the medium, and incubated at 22° C. overnight. Thereto was added 45 μL of a medium containing each present compound at a concentration of 0.1 ppm, and cultivated for 7 days under the conditions of an illuminance of 4,000 lux, a temperature of 22° C. and a day length of 16 hours, thereby treating the seedlings of tobacco (Nicotiana benthamiana) with the test compound. In the non-treated group, 45 μL of a medium obtained by adding a 1/1,000 volume of DMSO to a Murashige-and-Skoog medium at ½ concentration was added, and treated in the same manner as above. The seedlings of tobacco (Nicotiana benthamiana) treated with the present compounds were cultivated for 7 days under the conditions of an illuminance of 2,000 lux, a temperature of 1.5±1.0° C., and a day length of 16 hours, thereby subjecting to low-temperature stress treatment. The plants of tobacco (Nicotiana benthamiana) subjected to low-temperature stress treatment was cultivated for 3 days under the conditions of an illuminance of 4,000 lux, a temperature of 22° C., and a day length of 16 hours, and then the green leaf area of the plants was visually evaluated. Completely dead plant was scored as 0, the plant without low-temperature stress treatment was scored as 5, the green area was rated on a 6-point scale in ⅕ increments, and the score of not less than 1 was regarded as effective in reducing the stress. As a result of visual evaluation, the green leaf area of plants in the treated group, wherein the plants were treated with the present compound 1, 4 or 5 was much larger than that in the non-treated group.

[3] = test system: Rice (cultivar: Nipponbare); test: Test Example 8: promotion of root growth in hydroponics of rice; details: 1 ppm, 3 days germination + 3 days cultivation, average of 4 or 5 individuals
Procedure: Evaluation Test for Promotion of Root Growth in Hydroponics of Rice Rice (cultivar: Nipponbare) A 1/10,000 volume of a DMSO solution containing the present compound 5 at 10,000 ppm was added to a Hoagland solution for hydroponics (Hoagland and Amon, California Agricultural Experiment Station 1950 Circular 347 pp. 34) at ¼ concentration to obtain a solution for hydroponics containing the present compound 5 at 1 ppm. The solution was used in the treated-group. In a non-treated group, a solution for hydroponics obtained by adding a Hoagland solution for hydroponics at ¼ concentration to a 1/10,000 volume of DMSO was used. The rice seeds were immersed in an aqueous solution of 1% sodium hypochlorite for 10 minutes, followed by 70% ethanol solution to sterilize their surfaces. After that, the seeds were washed with distilled water. The sterilized seeds were immersed in the solution for hydroponics containing the test compound at the given concentration, and incubated at a temperature of 28° C. for 3 days under dark conditions to stimulate the germination of the seeds. […] The root length of the rice seedlings obtained after the cultivation was measured by using WinRHIZO system (manufactured by REGENT INSTRUMENTS). The average value of the root length in the treated group was calculated from the measurement values of 4 or 5 individuals. […]

| SMILES | root length of the rice seedlings vs non-treated group [1] | green leaf area of plants (visual evaluation) vs non-treated group [2] | root length of the rice seedlings vs non-treated group [3] |
| --- | --- | --- | --- |
| COC(=O)c1cc2cccc(C(F)(F)F)c2s1 [compound 4] | much longer | much larger |  |
| COC(=O)c1cc2c(C(F)(F)F)cccc2s1 [compound 3] | much longer |  |  |
| CCOC(=O)c1cc2cc(C(F)(F)F)ccc2s1 [compound 5] |  | much larger | much longer |
| COC(=O)c1cc2ccc(C(F)(F)F)cc2s1 [compound 2] | much longer |  |  |
